According to ChEMBL document CHEMBL1201862, “PubChem BioAssay data set” (2004):
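Following 48 hours of exposure in 96-well plates, responses at five concentrations were used to interpolate endpoints linearly. GI50 is the concentration that inhibits growth by half.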 The source made the active and inactive calls. Cut-off read from the data, not from the text of the source: active = GI50 up to about 1.1 µM and inactive = higher.

Key:
Assay in all cases: NCI tumour cell line growth inhibition, 48 h
SF-268 = test system: SF-268
RPMI-8226 = test system: RPMI-8226
MCF7 = test system: MCF7
M14 = test system: M14
K562 = test system: K562
SF-539 = test system: SF-539
MOLT-4 = test system: MOLT-4
LOX IMVI = test system: LOX IMVI
SK-OV-3 = test system: SK-OV-3
COLO 205 = test system: COLO 205
OVCAR-8 = test system: OVCAR-8
KM12 = test system: KM12
OVCAR-3 = test system: OVCAR-3
T47D = test system: T47D
ACHN = test system: ACHN
PC-3 = test system: PC-3
SF-295 = test system: SF-295
TK-10 = test system: TK-10
CAKI-1 = test system: CAKI-1
BT-549 = test system: BT-549

Measured: GI50

O=C(O)CNC(=O)c1ccc(-c2ccccc2)cc1
inactive: SF-268 > 100 µM | RPMI-8226 > 100 µM | MCF7 > 100 µM | M14 > 100 µM | K562 > 100 µM | SF-539 > 100 µM | MOLT-4 > 100 µM | LOX IMVI > 100 µM | SK-OV-3 > 100 µM | COLO 205 > 100 µM | OVCAR-8 > 100 µM | KM12 > 100 µM | OVCAR-3 > 100 µM | T47D > 100 µM | ACHN > 100 µM | PC-3 > 100 µM | SF-295 > 100 µM | TK-10 > 100 µM | CAKI-1 > 100 µM

COC(=O)[C@@H]1CN(C(C)=O)C(=O)N1C(=O)OCc1ccccc1
inactive: SF-268 59.2 µM | RPMI-8226 > 100 µM | M14 > 100 µM | K562 > 100 µM | SF-539 > 100 µM | MOLT-4 > 100 µM | LOX IMVI > 100 µM | SK-OV-3 > 100 µM | COLO 205 > 100 µM | OVCAR-8 > 100 µM | KM12 > 100 µM | OVCAR-3 > 100 µM | T47D > 100 µM | ACHN > 100 µM | PC-3 > 100 µM | SF-295 > 100 µM | TK-10 > 100 µM | CAKI-1 > 100 µM

O=c1oc2cccnc2n1CCN1CCN(c2ccc(Oc3ccccc3)cc2)CC1
inactive: SF-268 > 100 µM | RPMI-8226 8.47 µM | MCF7 > 100 µM | M14 89.7 µM | K562 12.4 µM | SF-539 > 100 µM | MOLT-4 19.7 µM | LOX IMVI > 100 µM | SK-OV-3 > 100 µM | OVCAR-8 > 100 µM | OVCAR-3 25.5 µM | T47D 10.4 µM | ACHN 35 µM | PC-3 34.4 µM | SF-295 43 µM | TK-10 61.8 µM | CAKI-1 > 100 µM

O=C(Nc1ccc(Br)cc1)c1c(-c2ccccc2)c2ccc(O)cc2oc1=O
inactive: SF-268 > 10 µM | RPMI-8226 > 10 µM | MCF7 > 10 µM | M14 > 10 µM | K562 > 10 µM | SF-539 > 10 µM | MOLT-4 > 10 µM | LOX IMVI > 10 µM | SK-OV-3 > 10 µM | COLO 205 > 10 µM | OVCAR-8 > 10 µM | KM12 > 10 µM | OVCAR-3 > 10 µM | T47D > 10 µM | ACHN > 10 µM | PC-3 > 10 µM | SF-295 > 10 µM | TK-10 > 10 µM | CAKI-1 > 10 µM

CC1CC(C)CC(NC2=NCCO2)C1 (configuration not stated)
inactive: SF-268 > 100 µM | RPMI-8226 > 100 µM | MCF7 > 100 µM | M14 > 100 µM | K562 > 100 µM | SF-539 > 100 µM | MOLT-4 > 100 µM | LOX IMVI > 100 µM | COLO 205 > 100 µM | OVCAR-8 > 100 µM | KM12 > 100 µM | OVCAR-3 > 100 µM | T47D > 100 µM | ACHN > 100 µM | PC-3 > 100 µM | SF-295 > 100 µM | TK-10 > 100 µM | CAKI-1 > 100 µM

CCCCOP(=O)(OCCCC)C(NS(=O)(=O)c1ccccc1)(C(=O)OCC)C(F)(F)F (configuration not stated)
inactive: SF-268 43 µM | RPMI-8226 24.5 µM | MCF7 16.6 µM | M14 25.9 µM | K562 20.5 µM | SF-539 19.5 µM | MOLT-4 20.2 µM | LOX IMVI 31.4 µM | SK-OV-3 58.5 µM | COLO 205 19.5 µM | OVCAR-8 40.1 µM | KM12 31 µM | OVCAR-3 25.1 µM | T47D > 100 µM | ACHN 27.9 µM | PC-3 30.1 µM | SF-295 25.8 µM | TK-10 33.9 µM | CAKI-1 16.4 µM

Cc1cc(C)c(OC(=O)Nc2cccc3ccccc23)c(-c2ccccc2)c1
inactive: SF-268 12.6 µM | RPMI-8226 22.5 µM | MCF7 52.5 µM | M14 29.1 µM | K562 41.8 µM | SF-539 57 µM | MOLT-4 3.81 µM | LOX IMVI 24.8 µM | SK-OV-3 67.6 µM | COLO 205 50.1 µM | OVCAR-8 33.6 µM | KM12 28.4 µM | OVCAR-3 24.5 µM | T47D 48.6 µM | ACHN 23.7 µM | PC-3 15.9 µM | SF-295 48.8 µM | TK-10 33.4 µM | CAKI-1 33.7 µM

c1ccc(-c2nnc(CCCCCCCCc3nnc(-c4ccccc4)o3)o2)cc1
inactive: SF-268 > 100 µM | MCF7 38.2 µM | M14 > 100 µM | K562 34.7 µM | SF-539 > 100 µM | MOLT-4 51.4 µM | LOX IMVI 48.9 µM | SK-OV-3 > 100 µM | COLO 205 > 100 µM | OVCAR-8 > 100 µM | KM12 63.8 µM | OVCAR-3 65 µM | ACHN > 100 µM | PC-3 > 100 µM | SF-295 > 100 µM | TK-10 > 100 µM | CAKI-1 46 µM | BT-549 > 100 µM

COc1ccc(CNc2nc(NCc3ccc(OC)cc3)nc(NC(C)C)n2)cc1
inactive: SF-268 9.02 µM | RPMI-8226 1.94 µM | MCF7 1.77 µM | M14 3.61 µM | K562 6.98 µM | SF-539 9.08 µM | MOLT-4 42.7 µM | LOX IMVI 6.89 µM | SK-OV-3 93.3 µM | COLO 205 9.57 µM | OVCAR-8 13.1 µM | KM12 5.07 µM | OVCAR-3 3.33 µM | T47D 43.6 µM | ACHN 8.02 µM | PC-3 3.3 µM | SF-295 3.96 µM | TK-10 17.9 µM | CAKI-1 20.3 µM

C[C@@H](c1ccccc1)N1C[C@@H](c2ccc3c(c2)OCO3)[C@@H]2C(=O)CCC[C@@H]21
inactive: SF-268 96.8 µM | RPMI-8226 38.1 µM | MCF7 27.8 µM | M14 19.5 µM | K562 64.1 µM | MOLT-4 30.3 µM | LOX IMVI 69 µM | SK-OV-3 > 100 µM | COLO 205 20.6 µM | OVCAR-8 > 100 µM | KM12 97.9 µM | T47D 37.3 µM | ACHN 35.2 µM | PC-3 59.2 µM | SF-295 79.3 µM | TK-10 > 100 µM | CAKI-1 > 100 µM

CC(C)CCn1c(=O)c2c(=O)[nH][nH]c2c2ccccc21
inactive: RPMI-8226 > 100 µM | MCF7 > 100 µM | K562 > 100 µM | SF-539 > 100 µM | MOLT-4 > 10 µM | LOX IMVI > 100 µM | COLO 205 > 100 µM | OVCAR-8 > 100 µM | KM12 > 100 µM | OVCAR-3 > 100 µM | ACHN > 100 µM | PC-3 > 100 µM | SF-295 > 100 µM | TK-10 > 100 µM | BT-549 > 100 µM

COc1ccc(/C(Cl)=C(\C=O)c2cc(OC)c(OC)c(OC)c2)cc1OC
inactive: SF-268 23.8 µM | RPMI-8226 10.8 µM | M14 56.4 µM | K562 25.7 µM | SF-539 26.2 µM | MOLT-4 22.4 µM | LOX IMVI 19.7 µM | SK-OV-3 72.4 µM | COLO 205 27.5 µM | OVCAR-8 17.8 µM | KM12 24.8 µM | OVCAR-3 27.7 µM | T47D 20.4 µM | ACHN 26.3 µM | PC-3 55.1 µM | SF-295 34.1 µM | TK-10 56.6 µM | CAKI-1 22.9 µM

CCCCc1cc2c(cc1O)CCC1C2CC[C@@]2(C)C1CC[C@@H]2O (some centres not stated)
inactive: SF-268 29.6 µM | RPMI-8226 5.14 µM | MCF7 11.8 µM | M14 18.9 µM | K562 9.38 µM | SF-539 26.2 µM | MOLT-4 11.7 µM | LOX IMVI 16.6 µM | SK-OV-3 16.3 µM | COLO 205 24.7 µM | OVCAR-8 15.3 µM | KM12 12.3 µM | OVCAR-3 13.7 µM | T47D 8.97 µM | ACHN 16.2 µM | PC-3 12.4 µM | SF-295 13.3 µM | TK-10 18.3 µM | CAKI-1 16.6 µM

CCC(=O)c1cn(C)c(=O)c2ccccc12
inactive: SF-268 > 100 µM | RPMI-8226 > 100 µM | M14 > 100 µM | K562 > 100 µM | SF-539 > 100 µM | MOLT-4 > 100 µM | LOX IMVI > 100 µM | SK-OV-3 > 100 µM | COLO 205 > 100 µM | OVCAR-8 > 100 µM | KM12 > 100 µM | OVCAR-3 > 100 µM | ACHN > 100 µM | SF-295 > 100 µM | TK-10 > 100 µM | CAKI-1 > 100 µM

O=C(NC(CS)C(=O)O)c1cccc2c(=O)c3ccccc3[nH]c12 (configuration not stated)
inactive: SF-268 > 100 µM | RPMI-8226 > 100 µM | MCF7 > 100 µM | M14 > 100 µM | K562 > 100 µM | MOLT-4 > 100 µM | LOX IMVI > 100 µM | SK-OV-3 > 100 µM | COLO 205 > 100 µM | OVCAR-8 > 100 µM | KM12 > 100 µM | OVCAR-3 > 100 µM | ACHN > 100 µM | PC-3 > 100 µM | SF-295 > 100 µM | TK-10 > 100 µM
